Data from paper PMC8891108, “Development and characterization of anti-fibrotic natural compound similars with improved effectivity” (Basic Research in Cardiology, 2022).
pEC50: −log10 of the molar value.

Key:
Format in all cases: cell-based
[1] = system: human cardiac fibroblasts (HCF); assay: miRNA mimic / inhibitor transfection before compound treatment, WST-1 readout
Description: (§1) A mix of forward and reverse primer pairs (10 µM, Eurofins) or 10 × Quantitect Primer Assay (Qiagen, #249900) was used for mRNA. To measure miRNA, RNA was reverse-transcribed using the miRNA TaqMan MicroRNA Reverse Transcription Kit (Applied Biosystems, #4366597) with specific miRNA RT primers (ThermoFisher, #4427975). cDNA was diluted 1:3 with dH2O before qPCR with Absolute Blue qPCR Mix (Abgene, #AB-4136/B) and the specific Taqman probes (ThermoFisher, #4427975). Runs were performed in ViiA7 (Applied Biosystems) or QuantStudio 7 Flex (Applied Biosystems). Real-time qPCR data were analysed as described elsewhere.
To determine whether these miRNAs are part of and essential to the mechanism of action of the compounds, we transfected HCF with miR mimics or inhibitors of the miRNA candidates prior to compound treatment. If a miRNA is essential for the compounds’ mechanism, we would expect the absence of anti-proliferative effects after inhibition of this miRNA, whereas anti-proliferative effects would remain if the miRNA is rather a downstream element of the compound response.

[2] = system: human cardiac fibroblasts (HCF); assay: nCounter Fibrosis Panel mRNA profiling of HCF; settings: 24 h treatment
Description: Briefly, 100 ng/5µL isolated total RNA of HCF after 24 h treatment (RIN > 7.5 and […] > 88%) was mixed with the hybridization Master Mix and incubated at 65 °C for 20 h before loading on a nCounter® FLEX (Department of Pathology, Hannover Medical School, Germany). All run files (.RCC) were compiled into a single experiment using the nSolver analysis software. […] Reference genes for normalization were determined by nSolver using all samples (ACAD9, ARMH3, CNOT10, GUSB, MTMR14, NOL7, NUBP1, PGK1, PPIA, RPLP0, see supplemental Fig. 4e, f). We then used the Advanced analysis plugin (v2.0.115) including LOT as confounder variable and BY adjusted p value < 0.05 for identification of central deregulated pathways. Additionally, normalized counts were further analysed with GraphPad Prism using multiple unpaired t tests with FDR ≤ 5% after BKY adjustment and log2 |FC| ≥ 1.

[3] = system: human living myocardial slices; assay: Ex vivo human living myocardial slices, qPCR gene expression; settings: 48 h
From the text: Myocardial slices were generated from human left ventricular heart specimens taken from failing hearts at the time of transplantation. Tissue was obtained from the Clinic for Cardiac, Thoracic, Transplant and Vascular Surgery at the Hannover Medical School (MHH), Hannover, Germany. Patients provided informed consent to the scientific use of the explanted tissue.
The preparation and culture of myocardial slices has been described before. Briefly, human heart specimens were sliced into 300 µm thick slices using a vibrating microtome (Campden Instruments, #7000smz-2) while in ice-cold 30 mM 2,3-butanedione monoxime + 1 mM D-glucose + 10 mM HEPES + 6 mM KCl + 140 mM NaCl + 1 mM MgCl2 + 1.8 mM CaCl2 (cardioplegic Tyrode’s solution), before being trimmed into approx. 7 × 7 mm pieces of aligned muscle fibres.
After 48 h in culture, myocardial slices were frozen in liquid nitrogen and stored at −80 °C for further gene expression analysis.
as §1

[4] = system: human cardiac fibroblasts (HCF); assay: Global RNA sequencing of treated HCF
From the text: The NEBNext Ultra II Directional RNA Kit was used to prepare the samples (the same as for the nCounter® Fibrosis Panel, see above) for subsequent deep sequencing on a NovaSeq PE50 (Illumina) at HZI Braunschweig (Germany). Reads were trimmed and mapped to the human genome hg38.79 using RNA STAR (v2.4.2a, [11]) by HZI Braunschweig. RAW read counts were further analysed on Galaxy (v3.38.3, usegalaxy.org, [2]) using the limma-voom method. Low-expressed transcripts without more than 0.25 CPM (counts per million reads mapped) in at least 3 samples (42,079 of 61,043) were filtered out, and TMM (trimmed mean of M values) was the method used to normalise library sizes. Changes in transcript expression were considered significant if FDR [4] ≤ 0.05 and log2 |FC| ≥ 1.3.

[5] = system: human cardiac fibroblasts (HCF); assay: TaqMan Array Human MicroRNA Cards, miRNA deregulation in HCF
Description: PCR amplification of array cards was performed as instructed. After quality control of all real-time qPCRs, cT values were exported and all runs were merged into a single excel file. Recommended baseline correction using relative thresholds to correct for varying reconstitution rates of different Taqman probes was not performed. Low-expressed miRNAs with cT > 32 in more than 1 replicate per treatment were excluded from analysis, before samples were normalized to column mean. Multiple unpaired t tests were performed using GraphPad Prism, deregulations were accepted as discoveries if FDR ≤ 1% (using BKY adjustment). As miRNA identifiers were based on miRbase v14, we converted them to the latest v22 for further analysis using miRBaseConverter. 747 sequences could be converted correctly, while the remaining miRNAs were removed from miRbase due to incorrect annotation (e.g. the sequences of hsa-miR-886-3p and hsa-miR-886-5p are part of VTRNA2-1 [44]) or no evidence of human expression.

[6] = system: human cardiac fibroblasts (HCF); assay: In vitro migration (scratch) assay of HCF; settings: 10 × EC50
Description: To assess migrative capabilities of HCF, cells were stained with 1:1000 1,1′-Dioctadecyl-3,3,3′,3′-Tetramethylindotricarbocyanine Iodide (DIR′) dye in FGM-3 for 20 min at 37 °C. Cells were washed with DPBS and seeded into 0.1% gelatine-coated 96-well plates at 30,000 cells per well. […] After 17 h and 24 h, plates were imaged again. Rate of migration was determined using the migrative index (MI).

[7] = system: human cardiac fibroblasts (HCF); assay: BrdU incorporation, HCF proliferation (first screen)
Description: 96-well plates (TPP) were coated with 0.1% gelatine and seeded with 7500 HCFs/well. After 72 h, medium was exchanged with serial dilutions of compounds in FGM-3 + 1.6% DMSO + 1% 5-bromo-2′-deoxyuridine (BrdU, Roche, #11647229001), prepared in additional plates. After 24 h, cells were washed twice with DPBS (Gibco, #14190144) before incubation with anti-BrdU:POD (Roche, #11647229001) for 60 min (RT). Readout was performed by measurement of absorbance at 370 nm + 490 nm in a Synergy HT (BioTek) microplate reader. […] As validation, HCF were seeded as before, but treated with serial dilutions of compounds after 24 h. […] After 60 min of incubation (37 °C, in the dark), absorbance at 450 nm + 630 nm was measured maintaining 37 °C and analysed as described before.
To assess screening quality, quality acceptance criteria Z′ (Z prime), SW (signal window), S:B (signal-to-background), S:N (signal-to-noise) were determined following. Average Z′ ≥ 0.5 and SW ≥ 2 were required to accept the screening overall, whereas single plates were rejected from analysis if Z′ < 0.3 or SW < 1.

[8] = mean of DMSO minus mean of treatment

COC(=O)C[C@](O)(CCCC(C)(C)O)C(=O)O[C@@H]1C(OC)=C[C@]23CCCN2CCc2cc4c(cc2[C@H]13)OCO4 [lyco-s, homoharringtonine]
anti-proliferative effect after inhibition of hsa-miR-132-3p [1]: protected | anti-proliferative effect after overexpression of hsa-miR-125a-5p [1]: partially protected against the anti-proliferative effect | deregulation of fibrosis panel genes / pathways [2]: repressed genes related to endothelial mesenchymal transition (EMT), ECM homeostasis as well as collagen biosynthesis | FAP expression (qPCR) [3]: significant down-regulation | MMP2 expression (qPCR) [3]: significant down-regulation | downregulation of high- to medium-expressed collagen isoforms [4]: approx. 90% | expression of FN1, PTN and BGN [4]: significantly downregulated | differentially expressed genes (DEGs) vs DMSO control ([4]; RNA sequencing): over 4000 | expression of collagen isoforms ([4]; top 20 expressed isoforms): approx. tenfold | Mean of treatment, hsa-miR-28-3p-002446 ([5]; cT normalized to column mean): -2.759 | Mean of treatment, hsa-miR-342-3p-002260 ([5]; cT normalized to column mean): -3.581 | Difference / ΔCT, hsa-miR-28-3p-002446 [5, 8]: 0.9679 | Difference / ΔCT, hsa-miR-342-3p-002260 [5, 8]: 1.208 | HCF migration [6]: repressed migration only after several hours | inhibitory activity on HCF proliferation ([7]; BrdU incorporation): showed inhibitory activity | EC50 fold lower than the EC50 of lycorine ([7]; HCF proliferation): over 100 fold | pEC50 ([7]; Homo sapiens, Cardiac fibroblast, HCF, 24 h treatment, read-out: Effective conc. (BrdU), EC50 by BrdU assay): 7.47
